Consider 34 molecules from US20240239759A1, “ISOXAZOLINE COMPOSITIONS AND THEIR USE AS ANTIPARASITICS” (Intervet Inc., priority 2007, published 2024).

The subject of the experiment is cat fleas (Ctenocephalides felis). Kind of experiment: Efficacy of various isoxazolines against cat fleas on mice (Example 3). The format is in vivo. The following applies: for pest or weed control at 20 mg/kg: Ctenocephalides felis, po, read-out: Flea inhibition relative to negative control. On the procedure:
In this experiment, mice were randomly assigned to a treatment group or a negative control (untreated) group. Each group consisted of three mice. The mice in the treatment groups were orally administered 20 mg/kg bodyweight of various isoxazolines dissolved in 7% DMF-premix and 93% purified water (aqua ad injectabilia). The application volume of these treatments was 0.01 mL/g bodyweight. One hour after treatment, each mouse was sedated and generally infested (whole body) with 30 vital, adult fleas (C. felis). To achieve this, the sedated mice were placed into an infestation-jar, and the fleas were placed directly onto the fur. After approximately 30 minutes of feeding, fleas were recovered from the mice. Assessments for inhibition and mortality were conducted 1 hr, 24 hr, and 48 hr after each infestation. The efficacy was calculated as the percentage of inhibited fleas in the treatment groups relative to the negative control group.

Where [1] appears, read: 1 h, mice, oral 20 mg/kg, infested 1 hr after treatment, 1 hr after infestation.
[2] abbreviates: 24 h, mice, oral 20 mg/kg, infested 1 hr after treatment, 24 hr after infestation.
The mark [3] stands for this setting: 48 h, mice, oral 20 mg/kg, infested 1 hr after treatment, 48 hr after infestation.
Setting [4] is: mice, oral 20 mg/kg, infested 1 hr after treatment, 1 hr after infestation.

SMILES strings stand for the structures. Like-named read-outs stand apart in the source and are kept apart here.

Regarding `Cc1cc(C2=NO[C@@](c3cc(Cl)cc(Cl)c3)(C(F)(F)F)C2)ccc1C(=O)NCC(=O)NCC(F)(F)F` (stereo in doubt) [Compound 17-1], the pest or weed control at 20 mg/kg by setting is: under setting [1], 100%; under setting [2], 100%; under setting [3], 100%.
Consider `Cc1cc(C2=NOC(CCl)(c3cc(Cl)cc(Cl)c3)C2)ccc1C(=O)NCc1ccccn1` (stereo not shown) [Compound 5-13], for which the pest or weed control at 20 mg/kg amounted to 16.7% under setting [1], 18.9% under setting [2] and 18.9% under setting [3].
In the case of `CCc1cc(C2=NOC(c3cc(Cl)cc(Cl)c3)(C(F)(F)F)C2)ccc1C(=O)NCC(F)(F)F` (stereo not shown) [Compound 5-15], the pest or weed control at 20 mg/kg worked out at 0% under setting [1], 31.1% under setting [2] and 36.7% under setting [3].
The matching figures for `COC(=O)N(C)C(=O)c1ccc(C2=NOC(c3cc(Cl)cc(Cl)c3)(C(F)(F)F)C2)cc1C` (stereo not shown) [Compound 5-16]: 0%, 46.7% and 54.4%.
`COC(=O)N(C(=O)c1ccc(C2=NOC(c3cc(Cl)cc(Cl)c3)(C(F)(F)F)C2)cc1C)c1cnc(Cl)cn1` (stereo not shown) [Compound 5-17]: the pest or weed control at 20 mg/kg by setting is: under setting [1], 0%; under setting [2], 36.7%; under setting [3], 41.1%.
Taken in the same sequence, the figures for `Cc1cc(C2=NOC(c3cc(Cl)cc(Cl)c3)(C(F)(F)F)C2)ccc1C(=O)N(C(=O)C(C)C)c1ncc(C#N)cn1` (stereo not shown) [Compound 5-18] were 0%, 54.4% and 54.4%.
Regarding `COC(=O)N(Cc1ccccn1)C(=O)c1ccc(C2=NOC(c3cc(Cl)cc(Cl)c3)(C(F)(F)F)C2)cc1C` (stereo not shown) [Compound 5-19], the pest or weed control at 20 mg/kg reads like this: under setting [1], 0%; under setting [2], 90%; under setting [3], 94.4%.
The matching figures for `COC(=O)N(C)C(=O)c1ccc(C2=NOC(c3cc(Cl)cc(Cl)c3)(C(F)(F)F)C2)cc1I` (stereo not shown) [Compound 5-20]: 4.4%, 96.7% and 97.8%.
As to `CCN(C(=O)c1ccc(C2=NOC(c3cc(Cl)cc(Cl)c3)(C(F)(F)F)C2)cc1C)c1ncc(Cl)cn1` (stereo not shown) [Compound 5-21], the pest or weed control at 20 mg/kg under setting [1] turned out to be 0%, the pest or weed control at 20 mg/kg under setting [2] was 75.6% and the pest or weed control at 20 mg/kg under setting [3] stood at 77.8%.
For `CC(=O)N(C(=O)c1ccc(C2=NOC(c3cc(Cl)cc(Cl)c3)(C(F)(F)F)C2)cc1C)c1ncc(Br)cn1` (stereo not shown) [Compound 5-22], the pest or weed control at 20 mg/kg came out at 0% under setting [1], 82.2% under setting [2] and 83.3% under setting [3].
Taken in the same sequence, the figures for `Cc1cc(C2=NOC(c3cc(Cl)cc(Cl)c3)(C(F)(F)F)C2)ccc1C(=O)N(C(=O)C(C)C)c1ncc(Cl)cn1` (stereo not shown) [Compound 5-23] were 0%, 87.8% and 94.4%.
The matching figures for `Cc1cc(C2=NOC(c3cc(Cl)cc(Cl)c3)(C(F)(F)F)C2)ccc1C(=O)N(C(=O)C1CC1)c1ncc(Cl)cn1` (stereo not shown) [Compound 5-24]: 0%, 84.4% and 86.7%.
Taken in the same sequence, the figures for `COC(=O)N(COCC(F)(F)F)C(=O)c1ccc(C2=NOC(c3cc(Cl)cc(Cl)c3)(C(F)(F)F)C2)cc1C` (stereo not shown) [Compound 5-25] were 0%, 75.6% and 84.4%.
As for `COCN(C(=O)OC)C(=O)c1ccc(C2=NOC(c3cc(Cl)cc(Cl)c3)(C(F)(F)F)C2)cc1Br` (stereo not shown) [Compound 5-26], the pest or weed control at 20 mg/kg is, setting by setting: under setting [1], 0%; under setting [2], 77.8%; under setting [3], 77.8%.
Regarding `COC(=O)N(COC(C)C)C(=O)c1ccc(C2=NOC(c3cc(Cl)cc(Cl)c3)(C(F)(F)F)C2)cc1C` (stereo not shown) [Compound 5-27], the pest or weed control at 20 mg/kg stood at 12.2% under setting [1], 72.2% under setting [2] and 84.4% under setting [3].
On to `COCN(C(=O)c1ccc(C2=NOC(c3cc(Cl)cc(Cl)c3)(C(F)(F)F)C2)cc1C)c1ncc(Cl)cn1` (stereo not shown) [Compound 5-28], for which the pest or weed control at 20 mg/kg came out at 1.1% under setting [1], 70% under setting [2] and 71.1% under setting [3].
The matching figures for `COCN(C(=O)OC)C(=O)c1ccc(C2=NOC(c3cc(Cl)cc(Cl)c3)(C(F)(F)F)C2)cc1I` (stereo not shown) [Compound 5-29]: 0%, 68.9% and 68.9%.
With `CC(=O)N(C(=O)c1ccc(C2=NOC(c3cc(Cl)cc(Cl)c3)(C(F)(F)F)C2)cc1C)c1ncc(C#N)cn1` (stereo not shown) [Compound 5-30], the pest or weed control at 20 mg/kg was found to be 2.2% under setting [1], 67.8% under setting [2] and 68.9% under setting [3].
As for `COC(=O)N(C(=O)c1ccc(C2=NOC(c3cc(Cl)cc(Cl)c3)(C(F)(F)F)C2)cc1C)c1ncc(C#N)cn1` (stereo not shown) [Compound 5-31], the pest or weed control at 20 mg/kg under setting [1] was determined as 0%, the pest or weed control at 20 mg/kg under setting [2] came out at 65.6% and the pest or weed control at 20 mg/kg under setting [3] is 65.6%.
As to `CC(=O)N(C(=O)c1ccc(C2=NOC(c3cc(Cl)cc(Cl)c3)(C(F)(F)F)C2)cc1C)c1cnccn1` (stereo not shown) [Compound 5-32], the pest or weed control at 20 mg/kg was 0% under setting [1], 70% under setting [2] and 71.1% under setting [3].
Taken in the same sequence, the figures for `CON=CNC(=O)c1ccc(C2=NOC(c3cc(Cl)c(Cl)c(Cl)c3)(C(F)(F)F)C2)cc1C` (stereo not shown) [Compound 5-33] were 0%, 100% and 100%.
The matching figures for `O=C(CNC(=O)c1ccc(C2=NOC(c3cc(C(F)(F)F)cc(C(F)(F)F)c3)(C(F)(F)F)C2)cc1)NCC(F)(F)F` (stereo not shown) [Compound 5-34]: 2.3%, 96.6% and 96.6%.
For the molecule `CC(NC(=O)c1ccc(C2=NOC(c3cc(Cl)c(Cl)c(Cl)c3)(C(F)(F)F)C2)cc1)C(=O)NCC(F)(F)F` (stereo not shown) [Compound 5-35], the pest or weed control at 20 mg/kg is, setting by setting: under setting [1], 0%; under setting [2], 100%; under setting [3], 100%.
Consider `CO/N=C\NC(=O)c1ccc(C2=NO[C@@](c3cc(Cl)cc(Cl)c3)(C(F)(F)F)C2)cc1C` [Compound 5-36], for which the pest or weed control at 20 mg/kg under setting [1] is 45.7%, the pest or weed control at 20 mg/kg under setting [2] came to 99% and the pest or weed control at 20 mg/kg under setting [3] turned out to be 99%.
Regarding `CCO/C(N)=N\C(=O)c1ccc(C2=NOC(c3cc(Br)cc(Br)c3)(C(F)(F)F)C2)cc1C` (stereo not shown) [Compound 5-37], the pest or weed control at 20 mg/kg reads like this: under setting [1], 7.7%; under setting [2], 99%; under setting [3], 100%.
Taken in the same sequence, the figures for `CCO/C(N)=N\C(=O)c1ccc(C2=NOC(c3cc(Cl)cc(Cl)c3)(C(F)(F)Cl)C2)cc1C` (stereo not shown) [Compound 5-38] were 2.3%, 96.7% and 97.7%.
Taken in the same sequence, the figures for `O=C(CNC(=O)c1ccc(C2=NOC(c3cc(Cl)c(Cl)c(C(F)(F)F)c3)(C(F)(F)F)C2)cc1)NCC(F)(F)F` (stereo not shown) [Compound 5-39] were 13.3%, 99% and 99%.
Consider `Cc1cc(C2=NOC(c3cc(Cl)c(F)c(Cl)c3)(C(F)(F)F)C2)ccc1C(=O)NCC(=O)NCC(F)(F)F` (stereo not shown) [Compound 5-40], for which the pest or weed control at 20 mg/kg (1 h) is 0%, the pest or weed control at 20 mg/kg (24 h) was 85.6% and the pest or weed control at 20 mg/kg (48 h) is 85.6%.
With `Cc1cc(C2=NOC(c3cc(Cl)c(F)c(C(F)(F)F)c3)(C(F)(F)F)C2)ccc1C(=O)NCC(=O)NCC(F)(F)F` (stereo not shown) [Compound 5-41], the pest or weed control at 20 mg/kg is, setting by setting: under setting [1], 0%; under setting [2], 94.3%; under setting [3], 95.6%.
As for `COC(=O)N(C(=O)c1ccc(C2=NOC(c3cc(Cl)cc(Cl)c3)(C(F)(F)F)C2)cc1C)c1ncc(Cl)cn1` (stereo not shown) [Compound 5-48], the pest or weed control at 20 mg/kg turned out to be 91.1% under setting [2] and 91.1% under setting [3].
Consider `CCO/N=C\NC(=O)c1ccc(C2=NOC(c3cc(Cl)cc(Cl)c3)(C(F)(F)F)C2)cc1C` (stereo not shown) [Compound 5-50], for which the “Flea inhibition relative to negative control” value under setting [4] was “(27.7%)”.
As to `COC(CNC(=O)c1ccc(C2=NOC(c3cc(Cl)cc(Cl)c3)(C(F)(F)Cl)C2)cc1C)OC` (stereo not shown) [Compound 5-53], the pest or weed control at 20 mg/kg amounted to 0% under setting [1], 82.2% under setting [2] and 91.1% under setting [3].
`Cc1cc(C2=NOC(c3cc(Cl)cc(Cl)c3)(C(F)(F)F)C2)ccc1C(=O)NC(C)C(=O)NCC(F)(F)F` (stereo not shown) [Compound 5-54]: under setting [4], the “Flea inhibition relative to negative control” value is 5-47 (0%), 5-54 (0%),.
Consider `Cc1cc(C2=NOC(c3cc(Cl)cc(Cl)c3)(C(F)(F)F)C2)ccc1C(=O)Nc1cncnc1` (stereo not shown) [Compound 5-55], for which the pest or weed control at 20 mg/kg under setting [1] is 0%, the pest or weed control at 20 mg/kg under setting [2] is 92.2% and the pest or weed control at 20 mg/kg under setting [3] is 93.3%.
